The text below walks through data of US6184238A, “N-hydroxyurea derivative and pharmaceutical composition containing the same” (Nikken Chemicals Co., Ltd., priority 1996, dated 2001).

A word on the IC50: it is the concentration that gives 50% inhibition. The ED50 is the dose at which the effect has come halfway, by size or by number of responders.

In one data set the target is T1, Thromboxane synthase (Homo sapiens, UniProt P24557).
T1 construct: Human platelet microsomes were used; from tissue; host or cells: human platelet microsomes
T1 sequence (P24557 1-533): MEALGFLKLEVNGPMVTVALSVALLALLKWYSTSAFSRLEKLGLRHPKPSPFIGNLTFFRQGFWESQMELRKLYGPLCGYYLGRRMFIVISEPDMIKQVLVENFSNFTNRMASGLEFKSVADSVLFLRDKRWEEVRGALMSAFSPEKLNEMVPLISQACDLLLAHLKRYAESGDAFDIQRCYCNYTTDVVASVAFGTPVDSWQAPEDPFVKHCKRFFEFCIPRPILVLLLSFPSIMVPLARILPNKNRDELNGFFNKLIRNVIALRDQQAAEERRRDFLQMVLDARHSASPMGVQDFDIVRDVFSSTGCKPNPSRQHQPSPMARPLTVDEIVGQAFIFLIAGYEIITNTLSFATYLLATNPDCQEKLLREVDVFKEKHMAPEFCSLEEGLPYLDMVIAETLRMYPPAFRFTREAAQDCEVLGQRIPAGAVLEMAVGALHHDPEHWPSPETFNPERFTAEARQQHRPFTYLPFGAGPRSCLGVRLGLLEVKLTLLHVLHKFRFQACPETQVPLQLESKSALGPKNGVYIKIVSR
As to the kind of experiment: Thromboxane synthase inhibitory activity (thromboxane B2 production, human platelet microsomes). The conditions noted are these: prostaglandin H2 added, pH 7.5, read-out: TxSI IC50 (inhibition of thromboxane B2 production). Format: biochemical. How it is done: (Test of Thromboxane synthase Inhibitory Activity)
Human platelet microsomes were used and a test performed using as an indicator the amount of production of the thromboxane A2 stable metabolite thromboxane B2. A buffer solution (20 mM tris-HCl buffer solution, 1 mM EDTA, pH 7.5) containing human platelet microsomes (50 μg protein/ ml) and the test compound (final concentration of 10^-6 M) was stirred, then incubated at 0° C. for 30 minutes, followed by adding prostaglandin H2 (100 ng/2 μl). This was made acidic to stop the reaction, then neutralized with 1M Tris-base, then centrifuged at 3000 rpm for 20 minutes. The amount of the thromboxane B2 in the supernatant was measured by the EIA method (Cayman Co. kit).
As the test compound, the compounds 1, 6, 10, 11, 18 to 21, 24 to 27, 35, 40, 41, 44, and 45 were used for the test.

Another data set addresses T2, Lipoxygenase (Rattus norvegicus, UniProt P12527).
T2 construct: Using rat polymorphonuclear leukocytes; endogenous in cells; host or cells: casein-elicited peritoneal polymorphonuclear leukocytes of male Wistar rats
T2 sequence (P12527 1-673): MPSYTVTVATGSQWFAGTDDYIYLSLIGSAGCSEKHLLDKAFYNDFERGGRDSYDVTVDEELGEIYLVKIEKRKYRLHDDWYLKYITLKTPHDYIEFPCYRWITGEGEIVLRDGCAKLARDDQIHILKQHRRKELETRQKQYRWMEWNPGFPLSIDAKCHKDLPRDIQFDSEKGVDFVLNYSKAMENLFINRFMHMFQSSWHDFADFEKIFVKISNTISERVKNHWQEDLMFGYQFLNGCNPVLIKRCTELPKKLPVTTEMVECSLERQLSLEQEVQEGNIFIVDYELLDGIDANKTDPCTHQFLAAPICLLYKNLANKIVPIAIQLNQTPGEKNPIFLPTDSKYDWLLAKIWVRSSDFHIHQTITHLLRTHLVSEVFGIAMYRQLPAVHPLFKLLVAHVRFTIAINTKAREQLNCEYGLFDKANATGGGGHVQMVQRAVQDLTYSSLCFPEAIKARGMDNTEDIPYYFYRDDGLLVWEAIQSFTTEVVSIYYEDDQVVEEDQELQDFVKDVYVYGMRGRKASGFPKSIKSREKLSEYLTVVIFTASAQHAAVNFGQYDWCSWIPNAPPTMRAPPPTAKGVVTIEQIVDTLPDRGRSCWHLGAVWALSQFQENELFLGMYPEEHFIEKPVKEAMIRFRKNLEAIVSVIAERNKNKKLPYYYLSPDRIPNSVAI
The data set can be described thus: Lipoxygenase inhibitory activity (leukotriene B4 production, rat polymorphonuclear leukocytes). Format: cell-based. How it is done:
(Test of Lipoxygenase Inhibitory Activity)
Using rat polymorphonuclear leukocytes, a test was conducted using as an indicator the amount of production of leukotriene B4. Wistar male rats (Japan Clea) were intraperitoneally administered with 12% sodium casein. After 16 hours, the peritoneal cavities were lavaged and the polymorphonuclear leukocytes were recovered. The polymorphonuclear leukocytes thus obtained were suspended in a phosphate buffer (137 mM NaCl, 3 mM KCl, 8 mM Na2 HPO4, 2 mM KH2 PO4) (2.5×10^5 cells/0.4 ml), then the test compound (final concentration 10^-5 M) was added and incubation performed for 10 minutes at 37° C. then a calcium solution (10 mM CaCl2, 0.86% NaCl) 0.1 ml was added and incubation performed for 5 minutes, then 1.25 μl of calcium ionophore (20 μm, A-23187) was added and the reaction started. Five minutes after the addition, 250 μl of methanol was added to stop the reaction. After the reaction was stopped, the result was centrifuged for 20 minutes (4° C., 3000 rpm), then the amount of leukotriene B4 in the supernatant was measured by the EIA method (Cayman Co. kit).
As the test compound, the same compounds as in Test Example 1 were used for the test.

Another data set deals with Crj-ICR male mice. As to the kind of experiment: Acute toxicity test. Format: in vivo, mouse. The conditions noted are these: intraperitoneal, dosages of up to 1000 mg/kg, 7 days observation. How it is done: Crj-ICR male mice (7 weeks old, five mice to a group) were used. The test compound (Compounds 9, 26, and 33) was suspended in 0.5% sodium carboxymethylcellulose and administered intraperitoneally at a ratio of 10 ml/kg. The survival of the animals was observed up until 7 days after administration.

Data set [1] concerns Antigen-Induced Bronchoconstriction Model of Guinea Pig. As to the kind of experiment: Antigen-induced bronchoconstriction model of guinea pig (Konzett-Rossler method). Format: in vivo. The conditions noted are these: Cavia porcellus, 1 h; guinea pigs sensitized by ovalbumin; oral; one hour after administration; read-out: Suppression of respiratory constriction (ED50). How it is done:
(Pharmacological Activity on Antigen-Induced Bronchoconstriction Model of Guinea Pig)
Guinea pigs sensitized by ovalbumin were used and orally administered with the test compound suspended in 5% gum arabic. The activity for inhibiting antigen-induced bronchoconstriction after one hour after administration was measured by the Konzett-Rossler method.
Each of the sensitized guinea pigs was anesthesized by 35 mg/kg pentobarbital, a cannula was inserted into the respiratory tract and connected to an artificial respirator, a cannula was inserted into the jugular vein, and treatment was performed by 5 mg/kg suxamethonium and […] mepyramine. Next, the guinea pig was inhaled a nebulized ovalbumin to cause bronchoconstriction and the activity in inhibiting bronchoconstriction was found from the ratio of the amount of overflow volume to the detector to the amount of air blown volume from the artificial respirator.
As the test compound, the Compounds 19, 26, and 33 were used. As the control, the thromboxane synthase inhibitor OKY-046 and the 5-lipoxygenaseinhibitor A-64077 were used.

Where [2] appears, read: rat polymorphonuclear leukocytes, calcium ionophore A-23187, 37° C., read-out: LTBI IC50 (inhibition of leukotriene B4 production).

Where two headings read alike, the source gives them in different places.

In the case of `NC(=O)N(O)CCCCCCCCCCCCn1c(-c2cccnc2)cc2ccccc21` [Compound 1, N-Hydroxy-N-[12-[1-[2-(3-pyridyl)indolyl]]dodecyl]urea], the IC50 at Thromboxane synthase came out at 3 nM; on Lipoxygenase (setting [2]) it was 6 nM.

Regarding `NC(=O)N(O)CCCCCCCCn1c(-c2cccnc2)cc2ccccc21` [Compound 6, N-Hydroxy-N-[8-[1-[2-(3-pyridyl)indolyl]]octyl]urea], the half-inhibitory concentration (IC50) at Thromboxane synthase turned out to be 0.7 nM; on Lipoxygenase (setting [2]), 10 nM.

On to `NC(=O)N(O)CCCCCCn1c(-c2cccnc2)c(Cl)c2cc(Cl)ccc21` [Compound 9, N-[6-[1-[3,5-dichloro-2-(3-pyridyl)indolyl]]hexyl]-N-hydroxyurea], for which the “Deaths (acute toxicity)” value in the data set with Crj-ICR male mice is “no deaths”.

On to `Cc1c(-c2cccnc2)n(CCCCCCN(O)C(N)=O)c2ccc(Cl)cc12` [Compound 10, N-[6-[1-[5-Chloro-3-methyl-2-(3-pyridyl)indolyl]]hexyl]-N-hydroxyurea], for which the IC50 on Thromboxane synthase came out at 0.7 nM; on Lipoxygenase (setting [2]), 30 nM.

Turning to `NC(=O)N(O)CCCCCCCCCCn1c(-c2cccnc2)cc2ccccc21` [Compound 11, N-hydroxy-N-[10-[1-[2-(3-pyridyl)indolyl]]decyl]urea], the IC50 at Thromboxane synthase was determined as 0.8 nM; on Lipoxygenase (setting [2]), 9 nM.

Take `NC(=O)N(O)CCCCCCn1cc(Cc2cccnc2)c2ccccc21` [Compound 18, N-Hydroxy-N-[6-[1-[3-(3-pyridylmethyl)indolyl]]hexyl]urea]: the IC50 on Thromboxane synthase was 300 nM; on Lipoxygenase (setting [2]), 100 nM.

For the compound `NC(=O)N(O)CCn1cc(-c2cccnc2)c2ccccc21` [Compound 19, N-Hydroxy-N-[2-[1-[3-(3-pyridyl)indolyl]]ethyl]urea], the IC50 stood at 15 nM at Thromboxane synthase and 300 nM at Lipoxygenase (setting [2]). The ED50 in data set [1] turned out to be 30 mg/kg.

On to `Cc1c(-c2cccnc2)c2ccccc2n1CCN(O)C(N)=O` [Compound 20, N-Hydroxy-N-[2-[1-[2-methyl-3-(3-pyridyl)indolyl]]ethyl]urea], for which the concentration for half-maximal inhibition (IC50) is 5 nM at Thromboxane synthase and 1500 nM on Lipoxygenase (setting [2]).

On to `NC(=O)N(O)CCCCCCn1cc(-c2cccnc2)c2ccccc21` [Compound 21, N-Hydroxy-N-[6-[1-[3-(3-pyridyl)indolyl]]hexyl]urea], for which the IC50 worked out at 15 nM at Thromboxane synthase and 40 nM on Lipoxygenase (setting [2]).

For the compound `Cn1c(-c2cccnc2)c(C=CCN(O)C(N)=O)c2ccccc21` [Compound 24, N-Hydroxy-N-[3-[3-[1-methyl-2-(3-pyridyl)indolyl]]-2-propenyl]urea], the values for the half-inhibitory concentration (IC50) on Thromboxane synthase and on Lipoxygenase (setting [2]) were 40 nM and 4000 nM, respectively.

On to `NC(=O)N(O)CC=Cc1cn(Cc2cccnc2)c2ccccc12` [Compound 25, N-hydroxy-N-[3-[3-[1-(3-pyridylmethyl)indolyl]]-2-propenyl]urea], for which the IC50 on Thromboxane synthase was found to be 150 nM; on Lipoxygenase (setting [2]), 200 nM.

For the compound `NC(=O)N(O)Cc1cn(Cc2cccnc2)c2ccccc12` [Compound 26, N-Hydroxy-N-[3-[1-(3-pyridylmethyl)indolyl]methyl]urea], the half-inhibitory concentration (IC50) on Thromboxane synthase came out at 700 nM; against Lipoxygenase it was 3000 nM. For the same compound, the 50% effective dose (ED50) in data set [1] is 75 mg/kg.

For `NC(=O)N(O)Cc1ccc(Cc2cn(Cc3cccnc3)c3ccccc23)cc1` [Compound 27, N-Hydroxy-N-[4-[3-[1-(3-pyridylmethyl)indolyl]]methylbenzyl]urea], the IC50 was 70 nM at Thromboxane synthase and 100 nM on Lipoxygenase (setting [2]).

`NC(=O)N(O)Cc1ccc2c(ccn2Cc2cccnc2)c1` [Compound 33, N-hydroxy-N-[5-[1-(3-pyridylmethyl)indolyl]methyl]urea]: in data set [1], the ED50 is 30 mg/kg.

As to `Cc1c(-c2cccnc2)n(C)c2ccc(CN(O)C(N)=O)cc12` [Compound 35, N-[5-[1,3-Dimethyl-2-(3-pyridyl)indolyl]methyl]-N-hydroxyurea], the IC50 is 40 nM on Thromboxane synthase and 2000 nM at Lipoxygenase (setting [2]).

Turning to `Cn1cc(-c2cccnc2)c2cc(CN(O)C(N)=O)ccc21` [Compound 40, N-Hydroxy-N-[5-[1-methyl-3-(3-pyridyl)indolyl]methyl]urea], the half-maximal inhibitory concentration (IC50) on Thromboxane synthase turned out to be 30 nM; on Lipoxygenase (setting [2]) it was 700 nM.

For the compound `Cc1c(-c2cccnc2)n(C)c2ccc(C(C)N(O)C(N)=O)cc12` (stereo not shown) [Compound 41, N-[1-[5-[1,3-Dimethyl-2-(3-pyridyl)indolyl]]ethyl]-N-hydroxyurea], the half-maximal inhibitory concentration (IC50) at Thromboxane synthase is 70 nM; on Lipoxygenase (setting [2]), 2000 nM.

With `Cc1c(-c2cccnc2)n(C)c2ccc(C#CC(C)N(O)C(N)=O)cc12` (stereo not shown) [Compound 44, N-[2-[4-[5-[1,3-dimethyl-2-(3-pyridyl)indolyl]]-3-butynyl]]-N-hydroxyurea], the concentration for half-maximal inhibition (IC50) turned out to be 30 nM on Thromboxane synthase and 600 nM at Lipoxygenase (setting [2]).

Turning to `CC(c1ccc2c(c1)c(-c1cccnc1)cn2C)N(O)C(N)=O` (stereo not shown) [Compound 45, N-Hydroxy-N-[1-[5-[1-methyl-3-(3-pyridyl)indolyl]]ethyl]urea], the IC50 at Thromboxane synthase worked out at 60 nM; at Lipoxygenase (setting [2]), 2500 nM.

As to `CC(c1cc2ccccc2s1)N(O)C(N)=O` (stereo not shown) [Compound A-64077, reference compound], the ED50 in data set [1] turned out to be 300 mg/kg.

Take `O=C(O)/C=C/c1ccc(Cn2ccnc2)cc1` [OKY-046, reference compound]: the 50% effective dose (ED50) in data set [1] was determined as 260 mg/kg.
